Laboratory results reported in patent US9988379B2, “GPR40 receptor agonist, methods of preparing the same, and pharmaceutical compositions containing the same as an active agent” (LG CHEM, LTD., priority 2012, dated 2018).

target: T1, human GPR40 (Homo sapiens, UniProt O14842); assay: Induction of Ca2+ (calcium flux assay) using human GPR40 expression cell line; type: cell-based; details: read-out: EC0.5
T1 construct: expressed in transfected cells; host or cells: CHO-K1
In short: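 CHO-K1 cells stably transfected with human GPR40, plated 24 h, loaded 1 h at 37° C with Calcium 5 dye in HBSS/HEPES pH 7.4. Intracellular calcium change after compound addition read on FlexStation; concentration–response of relative activity used to derive EC0.5.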

T1 sequence (O14842 whole entry): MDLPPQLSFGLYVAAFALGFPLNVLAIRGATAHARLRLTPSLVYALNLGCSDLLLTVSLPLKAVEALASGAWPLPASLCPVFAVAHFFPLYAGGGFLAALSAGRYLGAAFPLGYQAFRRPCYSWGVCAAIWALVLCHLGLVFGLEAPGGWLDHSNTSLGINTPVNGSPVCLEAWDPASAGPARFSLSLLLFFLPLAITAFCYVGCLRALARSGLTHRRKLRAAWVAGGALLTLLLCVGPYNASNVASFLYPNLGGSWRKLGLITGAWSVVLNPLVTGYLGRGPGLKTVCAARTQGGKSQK

Going from `CC#C[C@@H](CC(=O)O)c1ccc(OCc2ccc3ccn(Cc4ccccc4C)c3c2C)cc1` [Example 36, (S)-3-{4-[7-methyl-1-(2-methyl-benzyl)-1H-indol-6-ylmethoxy]-phenyl}-hex-4-ynoic acid] to `CC#C[C@@H](CC(=O)O)c1ccc(OCc2ccc3ccn(Cc4c(C)cccc4C)c3c2C)cc1` [Example 39, (S)-3-{4-[1-(2,6-dimethyl-benzyl)-7-methyl-1H-indol-6-ylmethoxy]-phenyl}-hex-4-ynoic acid], the EC50 rises from 0.06 µM to 0.2 µM (3.3-fold).

`CC#C[C@@H](CC(=O)O)c1ccc(OCc2ccc3c(C)nn(C(C)C)c3c2)cc1` [Example 185, (S)-3-[4-(1-isopropyl-3-methyl-1H-indazol-6-ylmethoxy)-phenyl]-hex-4-ynoic acid] and `CC#C[C@@H](CC(=O)O)c1ccc(OCc2ccc3cnn(C(C)C)c3c2)cc1` [Example 180, (S)-3-[4-(1-isopropyl-1H-indazol-6-ylmethoxy)-phenyl]-hex-4-ynoic acid] fall in the same range of EC50: 0.001 to 0.05 µM for the first, 0.001 to 0.05 µM for the second.

`CC#C[C@@H](CC(=O)O)c1ccc(OCc2cc(C)c3c(cnn3C(C)C)c2)cc1` [Example 168, (S)-3-[4-(1-isopropyl-7-methyl-1H-indazol-5-ylmethoxy)-phenyl]-hex-4-ynoic acid] and `CC#C[C@@H](CC(=O)O)c1ccc(OCc2ccc3cnn(CC(C)C)c3c2)cc1` [Example 114, (S)-3-[4-(1-isobutyl-1H-indazol-6-ylmethoxy)-phenyl]-hex-4-ynoic acid] fall in the same range of EC50: 0.001 to 0.05 µM for the first, 0.001 to 0.05 µM for the second.

`CC#C[C@@H](CC(=O)O)c1ccc(OCc2ccc3c(Cn4cccn4)nn(CC(C)C)c3c2C)cc1` [Example 228, (S)-3-[4-(1-isobutyl-7-methyl-3-pyrazol-1-ylmethyl-1H-indazol-6-ylmethoxy)-phenyl]-hex-4-ynoic acid] and `CC#C[C@@H](CC(=O)O)c1ccc(OCc2ccc3c(CF)nn(CC(C)C)c3c2C)cc1` [Example 222, (S)-3-[4-(3-fluoromethyl-1-isobutyl-7-methyl-1H-indazol-6-ylmethoxy)-phenyl]-hex-4-ynoic acid] cannot be ordered by EC50: 0.001 to 0.05 µM for the first, 0.005 µM for the second.

First: CC(C)n1ncc2ccc(COc3ccc([C@H](CC(=O)O)c4ccon4)cc3)cc21 [Example 96, (S)-3-[4-(1-isopropyl-1H-indazol-6-ylmethoxy)-phenyl]-3-isoxazol-3-yl-propanoic acid]
Second: O=C(O)C[C@@H](c1ccc(OCc2ccc3cnn(Cc4ccc(F)cc4)c3c2)cc1)c1ccon1 [Example 86, (S)-3-{4-[1-(4-fluoro-benzyl)-1H-indazol-6-ylmethoxy]-phenyl}-3-isoxazol-3-yl-propanoic acid]
The EC50 of the first is 3-fold higher: 0.03 µM for the first, 0.01 µM for the second. The second is the more potent here.

`Cc1cc(COc2ccc3c(c2)OCCC3CC(=O)O)cc2cnn(Cc3ccccc3)c12` (stereo not shown) [Example 129, [7-(1-benzyl-7-methyl-1H-indazol-5-ylmethoxy)-chroman-4-yl]-acetic acid] and `Cc1cc(COc2ccc3c(c2)OCC3CC(=O)O)cc2cnn(Cc3ccccc3)c12` (stereo not shown) [Example 128, [6-(1-benzyl-7-methyl-1H-indazol-5-ylmethoxy)-2,3-dihydro-benzofuran-3-yl]-acetic acid] cannot be ordered by EC50: 0.08 µM for the first, 0.05 to 0.5 µM for the second.

Going from `Cc1cc(F)ccc1-n1ccc2cc(F)c(COc3ccc(CCC(=O)O)cc3)cc21` [Example 23, 3-{4-[5-fluoro-1-(4-fluoro-2-methyl-phenyl)-1H-indol-6-ylmethoxy)-phenyl]-propanoic acid] to `Cc1c(COc2ccc(CCC(=O)O)cc2)ccc2ccn(Cc3ccccc3)c12` [Example 15, 3-[4-(1-benzyl-7-methyl-1H-indol-6-ylmethoxy)-phenyl]-propanoic acid], the EC50 rises from 0.004 µM to 0.01 µM (2.5-fold).

First: CC#C[C@@H](CC(=O)O)c1ccc(OCc2ccc3cnn(CC4(C)COC4)c3c2)cc1 [Example 177, (S)-3-{4-[1-(3-methyl-oxetan-3-ylmethyl)-1H-indazol-6-ylmethoxy]-phenyl}-hex-4-ynoic acid]
Second: CC#C[C@@H](CC(=O)O)c1ccc(OCc2ccc3cnn(Cc4ccc(C)nc4)c3c2)cc1 [Example 93, (S)-3-{4-[1-(6-methyl-pyridin-3-ylmethyl)-1H-indazol-6-ylmethoxy]-phenyl}-hex-4-ynoic acid]
The EC50 of the first is lower: 0.001 to 0.05 µM for the first, 0.05 to 0.5 µM for the second.

Going from `CC#C[C@@H](CC(=O)O)c1ccc(OCc2ccc3c(CN4CCOCC4)nn(CC(C)C)c3c2)cc1` [Example 219, (S)-3-[4-(1-isobutyl-3-morpholin-4-ylmethyl-1H-indazol-6-ylmethoxy)-phenyl]-hex-4-ynoic acid] to `CC#C[C@@H](CC(=O)O)c1ccc(OCc2ccc3c(CN4CCOCC4)nn(CC(C)C)c3c2Cl)cc1` [Example 216, (S)-3-[4-(7-chloro-1-isobutyl-3-morpholin-4-ylmethyl-1H-indazol-6-ylmethoxy)-phenyl]-hex-4-ynoic acid], the EC50 falls from 0.023 µM to 0.006 µM (3.8-fold). The second is the more potent here.

`CC#C[C@@H](CC(=O)O)c1ccc(OCc2cccc3c2ccn3Cc2ccccc2)cc1` [Example 31, (S)-3-[4-(1-benzyl-1H-indol-4-ylmethoxy)-phenyl]-hex-4-ynoic acid] and `CC#C[C@@H](CC(=O)O)c1ccc(OCc2ccc3nn(Cc4ccccc4)cc3c2)cc1` [Example 112, (S)-3-[4-(2-benzyl-2H-indazol-5-ylmethoxy)-phenyl]-hex-4-ynoic acid] cannot be ordered by EC50: 0.03 µM for the first, 0.001 to 0.05 µM for the second.

Compared with `CC#C[C@@H](CC(=O)O)c1ccc(OCc2cccc3nn(Cc4ccc(F)cc4)cc23)cc1` [Example 72, (S)-3-{4-[2-(4-fluoro-benzyl)-2H-indazol-4-ylmethoxy]-phenyl}-hex-4-ynoic acid], `CC#C[C@@H](CC(=O)O)c1ccc(OCc2ccc3cn(Cc4ccc(F)cc4)nc3c2)cc1` [Example 67, (S)-3-{4-[2-(4-fluoro-benzyl)-2H-indazol-6-ylmethoxy]-phenyl}-hex-4-ynoic acid] is 2.3-fold higher in EC50: 0.03 µM for the first, 0.07 µM for the second. The first is the more potent here.

First: CC#C[C@@H](CC(=O)O)c1ccc(OCc2ccc3c(C)nn(CC(C)C)c3c2C)cc1 [Example 212, (S)-3-[4-(1-isobutyl-3,7-dimethyl-1H-indazol-6-ylmethoxy)-phenyl]-hex-4-ynoic acid]
Second: CC#C[C@@H](CC(=O)O)c1ccc(OCc2ccc3c(COC(C)C)nn(CC(C)C)c3c2)cc1 [Example 193, (S)-3-[4-(1-isobutyl-3-isopropoxymethyl-1H-indazol-6-ylmethoxy)-phenyl]-hex-4-ynoic acid]
The EC50 of the first is 1.5-fold lower: 0.002 µM for the first, 0.003 µM for the second. The first is the more potent here.

`CC#C[C@@H](CC(=O)O)c1ccc(OCc2ccnc3c2ccn3C(C)C)cc1` [Example 224, (S)-3-[4-(1-isopropyl-1H-pyrrolo[2,3-b]pyridin-4-ylmethoxy)-phenyl]-hex-4-ynoic acid] and `CC#C[C@@H](CC(=O)O)c1ccc(OCc2cccc3c2cnn3C(C)C)cc1` [Example 190, (S)-3-[4-(1-isopropyl-1H-indazol-4-ylmethoxy)-phenyl]-hex-4-ynoic acid] are within 1.5-fold of each other in EC50: 0.027 µM for the first, 0.04 µM for the second.

Going from `O=C(O)CCc1ccc(NCc2ccc3ccn(-c4ccc(F)cc4)c3c2Cl)cc1` [Example 9, 3-(4-{[7-chloro-1-(4-fluoro-phenyl)-1H-indol-6-ylmethyl]-amino}-phenyl)-propanoic acid] to `O=C(O)CCc1ccc(NCc2ccc3c(Cl)c(Cl)n(Cc4ccccc4)c3c2)cc1` [Example 6, 3-{4-[(1-benzyl-2,3-dichloro-1H-indol-6-ylmethyl)-amino]-phenyl}-propanoic acid], the EC50 falls from 0.3 µM to 0.1 µM (3-fold).

`CC#C[C@@H](CC(=O)O)c1ccc(OCc2ccc3ccn(Cc4ccc(F)c(F)c4)c3c2C)cc1` [Example 51, (S)-3-{4-[1-(3,4-difluoro-benzyl)-7-methyl-1H-indol-6-ylmethoxy]-phenyl}-hex-4-ynoic acid] and `CC#C[C@@H](CC(=O)O)c1ccc(OCc2ccc3ccn(Cc4cccc(F)c4)c3c2C)cc1` [Example 42, (S)-3-{4-[1-(3-fluoro-benzyl)-7-methyl-1H-indol-6-ylmethoxy]-phenyl}-hex-4-ynoic acid] fall in the same range of EC50: 0.05 to 0.5 µM for the first, 0.05 to 0.5 µM for the second.

First: Cc1c(COc2ccc3c(c2)OCCC3CC(=O)O)ccc2ccn(Cc3ccccc3)c12 (stereo not shown) [Example 145, [7-(1-benzyl-7-methyl-1H-indol-6-ylmethoxy)-chroman-4-yl]-acetic acid]
Second: O=C(O)CC1COc2cc(OCc3ccc4cnn(Cc5ccccc5)c4c3)ccc21 (stereo not shown) [Example 105, [6-(1-benzyl-1H-indazol-6-ylmethoxy)-2,3-dihydro-benzofuran-3-yl]-acetic acid]
The EC50 of the first is 10-fold lower: 0.04 µM for the first, 0.4 µM for the second.

First: CC#C[C@@H](CC(=O)O)c1ccc(OCc2cccc3c(Cl)nn(C)c23)cc1 [Example 201, (S)-3-[4-(3-chloro-1-methyl-1H-indazol-7-ylmethoxy)-methyl]-hex-4-ynoic acid]
Second: CC#C[C@@H](CC(=O)O)c1ccc(OCc2ccc3onc(CC(C)C)c3c2)cc1 [Example 181, (S)-3-[4-(3-isobutyl-benzo[d]isoxazol-5-ylmethoxy)-phenyl]-hex-4-ynoic acid]
The EC50 of the first is 1.7-fold higher: 0.01 µM for the first, 0.006 µM for the second.

First: O=C(O)CCc1ccc(OCc2ccc3cnn(CC4CCCC4)c3c2)cc1F [Example 107, 3-[4-(1-cyclopentylmethyl-1H-indazol-6-ylmethoxy)-2-fluoro-phenyl]-propanoic acid]
Second: CC#C[C@@H](CC(=O)O)c1ccc(OCc2ccc3cnn(Cc4cccnc4)c3c2)cc1 [Example 79, (S)-3-[4-(1-pyridin-3-ylmethyl-1H-indazol-6-ylmethoxy)-phenyl]-hex-4-ynoic acid]
The EC50 of the first is higher: 0.2 µM for the first, 0.001 to 0.05 µM for the second.

Compared with `CC#C[C@@H](CC(=O)O)c1ccc(OCc2ccc3c(cnn3CCC(C)C)c2)cc1` [Example 136, (S)-3-{4-[1-(3-methyl-butyl)-1H-indazol-5-ylmethoxy]-phenyl}-hex-4-ynoic acid], `CC#C[C@@H](CC(=O)O)c1ccc(OCc2ccc3nnn(CC(C)C)c3c2)cc1` [Example 166, (S)-3-[4-(3-isobutyl-3H-benzotriazol-5-ylmethoxy)-phenyl]-hex-4-ynoic acid] is higher in EC50: 0.001 to 0.05 µM for the first, 0.05 to 0.5 µM for the second.

Compared with `CC#C[C@@H](CC(=O)O)c1ccc(OCc2ccc3ccn(Cc4ccc(Cl)nc4)c3c2C)cc1` [Example 46, (S)-3-{4-[1-(6-chloro-pyridin-3-ylmethyl)-7-methyl-1H-indol-6-ylmethoxy]-phenyl}-hex-4-ynoic acid], `CCC(CC(=O)O)c1ccc(OCc2ccc3c(cnn3Cc3ccccc3)c2)cc1` (stereo not shown) [Example 159, 3-[4-(1-benzyl-1H-indazol-5-ylmethoxy)-phenyl]-pentanoic acid] is higher in EC50: 0.001 to 0.05 µM for the first, 0.1 µM for the second.
